In US6878722B2, “Substituted cycloalkyl P1′ hepatitis C virus inhibitors” (Bristol-Myers Squibb Company, priority 2002, dated 2005):

Legend:
[1] = tested on: HCV replicon in Huh7 cells; test: HCV replicon cell-based assay (FRET); conditions: Hepatitis C virus, Huh-7; HCV replicon; read-out: EC50 range
How it was run: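 Huh7 cells stably carrying a genotype 1b HCV replicon (IRES-neo-EMCV-IRES-NS3-NS5B) were treated with compound for 4 days at 37 °C in 0.5% DMSO final. Lysates containing 10 μM FRET peptide RET S1 were read kinetically at 340/490 nm to give NS3 protease activity, from which EC50 was derived.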

[2] = target: T1, HCV NS3/4A protease complex (BMS strain, genotype 1a) (Hepatitis C virus genotype 1a, UniProt P27958, C1454S); test: Recombinant HCV NS3/4A protease complex FRET peptide assay, BMS strain; assay type: biochemical; conditions: IC50 range, NS3/4A BMS Strain
T1 construct: DNA encoding the recombinant HCV NS3/4A protease complex (amino acids 1027 to 1711) for these strains; inferred from the pET21b vector and Ni-NTA purification; made in house; host or cells: Escherichia coli BL21 (DE3), pET21b
T1 sequence (P27958 1658-1714, looked up, stated change not applied): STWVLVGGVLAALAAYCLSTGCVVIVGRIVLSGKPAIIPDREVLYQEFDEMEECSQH
T1 sequence (P27958 1027-1657, looked up, stated change not applied): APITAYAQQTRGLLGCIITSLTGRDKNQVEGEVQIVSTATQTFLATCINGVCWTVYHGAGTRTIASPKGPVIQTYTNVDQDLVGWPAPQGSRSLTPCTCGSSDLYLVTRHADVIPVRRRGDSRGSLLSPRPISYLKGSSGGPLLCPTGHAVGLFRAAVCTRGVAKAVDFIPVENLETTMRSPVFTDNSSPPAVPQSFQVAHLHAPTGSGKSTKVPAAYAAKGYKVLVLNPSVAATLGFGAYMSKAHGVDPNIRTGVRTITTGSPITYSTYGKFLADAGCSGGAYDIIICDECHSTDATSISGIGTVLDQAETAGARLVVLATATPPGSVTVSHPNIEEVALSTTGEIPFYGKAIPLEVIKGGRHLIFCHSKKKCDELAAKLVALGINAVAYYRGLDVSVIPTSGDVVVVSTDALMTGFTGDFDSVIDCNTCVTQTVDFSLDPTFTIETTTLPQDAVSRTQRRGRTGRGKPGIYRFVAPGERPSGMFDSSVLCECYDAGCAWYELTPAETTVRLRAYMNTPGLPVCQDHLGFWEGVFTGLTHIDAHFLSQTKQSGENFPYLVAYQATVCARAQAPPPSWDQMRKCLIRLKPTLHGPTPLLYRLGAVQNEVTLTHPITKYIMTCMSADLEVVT
How it was run: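 Recombinant NS3/4A complex (aa 1027–1711) with C-terminal three-lysine tail, C1711G and C1454S, expressed in E. coli BL21(DE3) and purified by Ni-NTA then Superdex-S200. Inhibition of the complex from each strain measured in vitro by FRET peptide cleavage.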

Row | Structure (SMILES) | EC50 [1] [nM] | IC50 [2] [nM]
1 | C=C[C@@H]1C[C@]1(NC(=O)[C@@H]1C[C@@H](Oc2cc(-c3ccccc3)nc3cc(OC)ccc23)CN1C(=O)[C@@H](NC(=O)OC(C)(C)C)C(C)(C)C)C(=O)NS(=O)(=O)C1(Cc2ccc(F)cc2)CC1 [Compound 40, {1-[2-{1-[1-(4-Fluoro-benzyl)-cyclopropanesulfonylaminocarbonyl]-2-vinyl-cyclopropylcarbamoyl}-4-(7-methoxy-2-phenyl-quinolin-4-yloxy)-pyrrolidine-1-carbonyl]-2,2-dimethyl-propyl}-carbamic acid tert-butyl ester] | 50 to 500 | < 50
2 | C=C[C@@H]1C[C@]1(NC(=O)[C@@H]1C[C@@H](Oc2cc(-c3ccccc3)nc3cc(OC)ccc23)CN1C(=O)[C@@H](NC(=O)OC(C)(C)C)C(C)(C)C)C(=O)NS(=O)(=O)C1(Cc2cc(C)on2)CC1 [Compound 51, [1-(4-(7-Methoxy-2-phenyl-quinolin-4-yloxy)-2-{1-[1-(5-methyl-isoxazol-3-ylmethyl)-cyclopropanesulfonylaminocarbonyl]-2-vinyl-cyclopropylcarbamoyl}-pyrrolidine-1-carbonyl)-2,2-dimethyl-propyl]-carbamic acid tert-butyl ester] | < 50 | < 50
3 | C=C[C@@H]1C[C@]1(NC(=O)[C@@H]1C[C@@H](Oc2cc(-c3ccccc3)nc3cc(OC)ccc23)CN1C(=O)[C@@H](NC(=O)OC(C)(C)C)C(C)(C)C)C(=O)NS(=O)(=O)C1(CC(C)C)CC1 [Compound 31, {1-[2-[1-(1-Isobutyl-cyclopropanesulfonylaminocarbonyl)-2-vinyl-cyclopropylcarbamoyl]-4-(7-methoxy-2-phenyl-quinolin-4-yloxy)-pyrrolidine-1-carbonyl]-2,2-dimethyl-propyl}-carbamic acid tert-butyl ester] | 50 to 500 | < 50
4 | C=C[C@@H]1C[C@]1(NC(=O)[C@@H]1C[C@@H](Oc2cc(-c3ccccc3)nc3cc(OC)ccc23)CN1C(=O)[C@@H](NC(=O)OC(C)(C)C)C(C)(C)C)C(=O)NS(=O)(=O)C1(CCOC)CC1 [Compound 35, {1-[2-{1-[1-(2-Methoxy-ethyl)-cyclopropanesulfonylaminocarbonyl]-2-vinyl-cyclopropylcarbamoyl}-4-(7-methoxy-2-phenyl-quinolin-4-yloxy)-pyrrolidine-1-carbonyl]-2,2-dimethyl-propyl}-carbamic acid tert-butyl ester] | < 50 | < 50
5 | C=C[C@@H]1C[C@]1(NC(=O)[C@@H]1C[C@@H](Oc2cc(-c3ccccc3)nc3cc(OC)ccc23)CN1C(=O)[C@@H](NC(=O)OC(C)(C)C)C(C)C)C(=O)NS(=O)(=O)C1(CC2CC2)CC1 [Compound 52, {1-[2-[1-(1-Cyclopropylmethyl-cyclopropanesulfonylaminocarbonyl)-2-vinyl-cyclopropylcarbamoyl]-4-(7-methoxy-2-phenyl-quinolin-4-yloxy)-pyrrolidine-1-carbonyl]-2-methyl-propyl}-carbamic acid tert-butyl ester] | < 50 | < 50
6 | C=C[C@@H]1C[C@]1(NC(=O)[C@@H]1C[C@@H](Oc2cc(-c3ccccc3)nc3cc(OC)ccc23)CN1C(=O)[C@@H](NC(=O)CC1CC1)C(C)(C)C)C(=O)NS(=O)(=O)C1(Cc2ccccc2)CC1 [Compound 58, 1-[2-(2-Cyclopropyl-acetylamino)-3,3-dimethyl-butyryl]-4-(7-methoxy-2-phenyl-quinolin-4-yloxy)-pyrrolidine-2-carboxylic acid [1-(1-benzyl-cyclopropanesulfonylaminocarbonyl)-2-vinyl-cyclopropyl]-amide] | 50 to 500 | < 50
7 | C=C[C@@H]1C[C@]1(NC(=O)[C@@H]1C[C@@H](Oc2cc(-c3ccccc3)nc3cc(OC)ccc23)CN1C(=O)[C@@H](NC(=O)OCCOC)C(C)(C)C)C(=O)NS(=O)(=O)C1(Cc2ccccc2)CC1 [Compound 104] | 500 to 5000 | 50 to 500
8 | C=CC1C[C@]1(NC(=O)[C@@H]1C[C@@H](Oc2cc(-c3ccccc3)nc3cc(OC)ccc23)CN1C(=O)[C@@H](NC(=O)CC1CC1)C(C)(C)C)C(=O)NS(=O)(=O)C1(C)CC1 (stereo in doubt) [Compound 13, 1-[2-(2-Cyclopropyl-acetylamino)-3,3-dimethyl-butyryl]-4-(7-methoxy-2-phenylquinolin-4-yloxy)-pyrrolidine-2-carboxylic acid [1-(1-methylcyclopropanesulfonylaminocarbonyl)-2-vinylcyclopropyl]amide] | < 50 | < 50
9 | C=C[C@@H]1C[C@]1(NC(=O)[C@@H]1C[C@@H](Oc2cc(-c3ccccc3)nc3cc(OC)ccc23)CN1C(=O)[C@@H](NC(=O)C1CCOCC1)C(C)(C)C)C(=O)NS(=O)(=O)C1(Cc2ccccc2)CC1 [Compound 60, 1-{3,3-Dimethyl-2-[(tetrahydro-pyran-4-carbonyl)-amino]-butyryl}-4-(7-methoxy-2-phenyl-quinolin-4-yloxy)-pyrrolidine-2-carboxylic acid [1-(1-benzyl-cyclopropanesulfonylaminocarbonyl)-2-vinyl-cyclopropyl]-amide] | 500 to 5000 | < 50
10 | C=C[C@@H]1C[C@]1(NC(=O)[C@@H]1C[C@@H](Oc2cc(-c3ccccc3)nc3cc(OC)ccc23)CN1C(=O)[C@@H](NC(=O)OC(C)(C)C)C(C)(C)C)C(=O)NS(=O)(=O)C1(COC(C)C)CC1 [Compound 37, {1-[2-[1-(1-Isopropoxymethyl-cyclopropanesulfonylaminocarbonyl)-2-vinyl-cyclopropylcarbamoyl]-4-(7-methoxy-2-phenyl-quinolin-4-yloxy)-pyrrolidine-1-carbonyl]-2,2-dimethyl-propyl}-1-carbamic acid tert-butyl ester] | < 50 | < 50
11 | C=C[C@@H]1C[C@]1(NC(=O)[C@@H]1C[C@@H](Oc2cc(-c3ccccc3)nc3cc(OC)ccc23)CN1C(=O)[C@@H](NC(=O)OC(C)(C)C)C(C)(C)C)C(=O)NS(=O)(=O)C1(Cc2ccccn2)CC1 [Compound 48, (1-{4-(7-Methoxy-2-phenyl-quinolin-4-yloxy)-2-[1-(1-pyridin-2-ylmethyl-cyclopropanesulfonylaminocarbonyl)-2-vinyl-cyclopropylcarbamoyl]-pyrrolidine-1-carbonyl}-2,2-dimethyl-propyl)-carbamic acid tert-butyl ester] | < 50 | < 50
12 | C=CC1C[C@]1(NC(=O)[C@@H]1C[C@@H](Oc2cc(-c3ccccc3)nc3cc(OC)ccc23)CN1C(=O)[C@@H](NC(=O)OC(C)(C)C)C(C)(C)C)C(=O)NS(=O)(=O)C1(C(=O)Nc2ccccc2)CC1 (stereo in doubt) [Compound 6, (1-{4-(7-Methoxy-2-phenyl-quinolin-4-yloxy)-2-[1-(1-phenylcarbamoyl-cyclopropane-sulfonylaminocarbonyl)-2-vinylcyclopropylcarbamoyl]-pyrrolidine-1-carbonyl}-2,2-dimethyl-propyl)carbamic acid tert-butyl ester] | 50 to 500 | < 50
13 | C=C[C@@H]1C[C@]1(NC(=O)[C@@H]1C[C@@H](Oc2cc(-c3ccccc3)nc3cc(OC)ccc23)CN1C(=O)[C@@H](NC(=O)OCCF)C(C)(C)C)C(=O)NS(=O)(=O)C1(Cc2ccccc2)CC1 [Compound 106] | 50 to 500 | < 50
14 | COc1ccc2c(O[C@@H]3C[C@@H](C(=O)NC4(C(=O)NS(=O)(=O)C5(Cc6ccccc6)CC5)CC45CC5)N(C(=O)[C@@H](NC(=O)OC(C)(C)C)C(C)(C)C)C3)cc(-c3ccccc3)nc2c1 (mixture of isomers) [Compound 201, {1-[2-[1-(1-Benzyl-cyclopropanesulfonylaminocarbonyl)-spiro[2.2]pent-1-ylcarbamoyl]-4-(7-methoxy-2-phenyl-quinolin-4-yloxy)-pyrrolidine-1-carbonyl]-2,2-dimethyl-propyl}-carbamic acid tert-butyl ester] | 5000 to 50000 | 500 to 5000
